According to patent US12655142B2 (Merck Patent GmbH, priority 2019, dated 2026):

Assays:
[1] = target: T1, c-Kit(V654A) (Homo sapiens, UniProt P10721, V654A); test: c-Kit(V654A) assay (33P-ATP filter binding kinase assay); assay type: biochemical; details: recombinant human c-Kit aa 544-end V654A, ATP 200 μM
T1 construct: recombinant human c-Kit, amino acids 544-end containing the V654A mutation; GST (N)
Description: c-Kit(V654A) (N-terminal GST-tagged, recombinant human c-Kit, amino acids 544-end containing the V654A mutation) is incubated with 8 mM MOPS pH 7.0, 0.2 mM EDTA, 250 μM GGMEDIYEFMGGKKK, 10 mM MgAcetate and [gamma-33P-ATP] (specific activity approx. 500 cpm/pmol, concentration 200 μM). The reaction is initiated by the addition of the MgATP mix. After incubation for 40 minutes at room temperature, the reaction is stopped by the addition of 3% phosphoric acid solution. 10 μL of the reaction is then spotted onto a P30 filtermat and washed three times for 5 minutes in 75 mM phosphoric acid and once in methanol prior to drying and scintillation counting.

[2] = target: T2, GIST430/654 cell line expressing mutated constitutively active cKIT receptor tyrosine kinase (Δ560-576 deletion and V654A point mutation) (Homo sapiens, UniProt P10721, DEL560-576/V654A); test: Cellular cKIT autophosphorylation (phospho-Y307-cKIT, Luminex bead assay) in GIST430/654 cells; assay type: cell-based; details: compounds 45 min, read-out: GIST 430/654 IC50
T2 construct: endogenous in cells; host or cells: GIST430/654 cells
Description: Assay Principle for Cellular Testing of cKIT Mutant Inhibitors
The GIST430 cell line expressing constitutive active cKIT receptor tyrosine kinase (Δ560-576 deletion) and the Imatinib resistant GIST430/654 cell line expressing mutated constitutively active cKIT receptor tyrosine kinase (Δ560-576 deletion and V654A point mutation) were employed for assessing cellular potency of compounds. Cellular activity of mutant cKIT was determined by the degree of cKIT autophosphorylation at tyrosine 307 using a Luminex-based bead assay. GIST430 cells were plated with 22,000 cells per well of a 96-well plate in 100 μl medium (85% IMDM/15% FCS) and GIST430/654 cells were plated with 25,000 cells per well of a 96-well plate in 100 μl medium (85% IMDM/15% FCS supplemented with 100 nM Imatinib). At the following day compounds were added in a serial dilution for 45 min. Then, cells were lysed with 90 μl lysis buffer (20 mM Hepes pH 7.5, 200 mM NaCl, 1.5 mM MgCl2×6H2O, 0.4 mM EDTA, 1% Triton-X-100, 1% Phosphatase-Inhibitor II, 20 mM β-Glycerolphosphat, 0.1% Protease-Inhibitor Cocktail III, 0.01% Benzonase) and lysates were cleared by centrifugation through a 96-well filter plate (0.65 μm). Samples were incubated with Luminex-beads which were coupled with an anti-total cKIT antibody overnight at 4° C. under gentle agitation. For detection of phospho-Y307-cKIT a phosphospecific antibody and a species-specific PE-labeled secondary antibody were added. The amount of phospho-Y307-cKIT was determined in a Luminex 200 instrument measuring 100 events per well within 60 seconds.
Counts from samples treated with compounds were calculated as percent of control from solvent treated (0.3% DMSO) samples. Dose-response curves were fitted and IC50 values were determined using Genedata Screener software.

T2 sequence (P10721 with tags, fused parts or gaps DEL560-576/V654A): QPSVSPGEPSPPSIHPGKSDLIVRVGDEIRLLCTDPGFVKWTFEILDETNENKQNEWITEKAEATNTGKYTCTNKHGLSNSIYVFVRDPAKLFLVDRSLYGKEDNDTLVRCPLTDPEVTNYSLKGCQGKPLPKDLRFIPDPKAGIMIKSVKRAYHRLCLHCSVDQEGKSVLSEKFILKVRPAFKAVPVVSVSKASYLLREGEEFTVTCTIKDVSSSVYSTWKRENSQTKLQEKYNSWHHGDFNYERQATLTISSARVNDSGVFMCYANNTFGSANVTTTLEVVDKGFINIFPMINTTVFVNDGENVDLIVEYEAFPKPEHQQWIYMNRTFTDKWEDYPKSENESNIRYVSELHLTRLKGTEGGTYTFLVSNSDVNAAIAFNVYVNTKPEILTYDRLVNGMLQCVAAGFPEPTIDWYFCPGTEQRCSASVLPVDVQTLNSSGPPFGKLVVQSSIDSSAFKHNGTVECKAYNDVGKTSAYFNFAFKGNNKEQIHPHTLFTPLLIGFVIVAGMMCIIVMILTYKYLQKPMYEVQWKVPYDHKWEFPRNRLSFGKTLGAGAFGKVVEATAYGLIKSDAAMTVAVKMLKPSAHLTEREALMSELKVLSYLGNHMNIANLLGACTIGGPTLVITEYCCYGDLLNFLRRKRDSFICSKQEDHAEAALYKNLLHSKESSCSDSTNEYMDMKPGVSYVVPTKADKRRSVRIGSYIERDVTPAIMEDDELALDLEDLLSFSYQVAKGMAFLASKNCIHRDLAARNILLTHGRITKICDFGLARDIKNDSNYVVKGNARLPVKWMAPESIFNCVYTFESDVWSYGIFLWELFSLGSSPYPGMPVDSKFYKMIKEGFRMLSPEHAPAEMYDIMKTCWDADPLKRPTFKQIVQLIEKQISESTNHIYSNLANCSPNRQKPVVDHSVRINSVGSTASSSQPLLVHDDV
T1 sequence (P10721 544-976 V654A): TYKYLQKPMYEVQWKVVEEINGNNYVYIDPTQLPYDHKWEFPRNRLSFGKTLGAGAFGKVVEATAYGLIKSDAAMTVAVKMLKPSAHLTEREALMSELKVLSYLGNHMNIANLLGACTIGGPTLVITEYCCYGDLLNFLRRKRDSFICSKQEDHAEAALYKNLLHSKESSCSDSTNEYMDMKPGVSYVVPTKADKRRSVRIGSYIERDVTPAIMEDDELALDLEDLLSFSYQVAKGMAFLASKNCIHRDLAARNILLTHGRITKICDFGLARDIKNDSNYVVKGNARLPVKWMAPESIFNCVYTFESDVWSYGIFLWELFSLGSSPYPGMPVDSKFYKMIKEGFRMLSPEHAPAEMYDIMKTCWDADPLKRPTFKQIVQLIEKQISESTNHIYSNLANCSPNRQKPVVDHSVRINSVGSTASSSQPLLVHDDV

SMILES	IC50 [1] [nM]	IC50 [2] [nM]
COc1ccn2c(-c3cc(NCc4ccc(-c5cnn(CCO)c5)cc4)ncn3)cnc2c1 [A30, 2-[4-(4-{[6-(7-methoxy-imidazo[1,2-a]pyridin-3-yl)-pyrimidin-4-ylamino]-methyl}-phenyl)-pyrazol-1-yl]-ethanol]	27	180
COc1ccn2c(-c3cc(NCc4ccc(-c5cn(C)nn5)cc4)ncn3)cnc2c1 [A31, [6-(7-methoxy-imidazo[1,2-a]pyridin-3-yl)-pyrimidin-4-yl]-[4-(1-methyl-1H-[1,2,3]triazol-4-yl)-benzyl]-amine]	49	810
COc1ccn2c(-c3cc(NCc4ccc(-c5cnn(C6COC6)c5)cc4)ncn3)cnc2c1 [A33, 6-{7-methoxyimidazo[1,2-a]pyridin-3-yl}-N-({4-[1-(oxetan-3-yl)-1H-pyrazol-4-yl]phenyl}methyl)pyrimidin-4-amine]	16	120
COc1ccn2c(-c3cc(NCc4ccc(-c5nccc(OC)n5)cc4)ncn3)cnc2c1 [A34, 6-{7-methoxyimidazo[1,2-a]pyridin-3-yl}-N-{[4-(4-methoxypyrimidin-2-yl)phenyl]methyl}pyrimidin-4-amine]	52	740
COc1ccn2c(-c3cc(NCc4ccc(-c5cn(C)nc5N)cc4)ncn3)cnc2c1 [A35, [4-(3-amino-1-methyl-1H-pyrazol-4-yl)-benzyl]-[6-(7-methoxy-imidazo[1,2-a]pyridin-3-yl)-pyrimidin-4-yl]-amine]	71	890
COc1ccn2c(-c3cc(NCc4ccc(-c5nnn(C)n5)cc4)ncn3)cnc2c1 [A37, 6-{7-methoxyimidazo[1,2-a]pyridin-3-yl}-N-{[4-(2-methyl-2H-1,2,3,4-tetrazol-5-yl)phenyl]methyl}pyrimidin-4-amine]	15	220
COc1ccn2c(-c3cc(NCc4ccc(N5CC6CCC(C5)O6)cc4)ncn3)cnc2c1 [A38, [6-(7-methoxy-imidazo[1,2-a]pyridin-3-yl)-pyrimidin-4-yl]-[4-(8-oxa-3-aza-bicyclo[3.2.1]oct-3-yl)-benzyl]-amine]	55	710
COc1ccn2c(-c3cc(NCc4ccc(-c5cncn5C)cc4)ncn3)cnc2c1 [A39, 6-{7-methoxyimidazo[1,2-a]pyridin-3-yl}-N-{[4-(1-methyl-1H-imidazol-5-yl)phenyl]methyl}pyrimidin-4-amine]	27	640
COc1ccn2c(-c3cc(NCc4ccc(-c5ccc(C)nn5)cc4)ncn3)cnc2c1 [A40, 6-{7-methoxyimidazo[1,2-a]pyridin-3-yl}-N-{[4-(6-methylpyridazin-3-yl)phenyl]methyl}pyrimidin-4-amine]	36	1100
COc1ccn2c(-c3cc(NCc4ccc(-c5cnc(C)nc5)cc4)ncn3)cnc2c1 [A41, 6-{7-methoxyimidazo[1,2-a]pyridin-3-yl}-N-{[4-(2-methylpyrimidin-5-yl)phenyl]methyl}pyrimidin-4-amine]	46	1600
COc1ccn2c(-c3cc(NCc4ccc(-c5cnn(C)n5)cn4)ncn3)cnc2c1 [A44, [6-(7-methoxy-imidazo[1,2-a]pyridin-3-yl)-pyrimidin-4-yl]-[5-(2-methyl-2H-[1,2,3]triazol-4-yl)-pyridin-2-ylmethyl]-amine]	27	510
COc1ccn2c(-c3cc(NCc4ccc(-c5nc(C)no5)cc4)ncn3)cnc2c1 [A47, 6-{7-methoxyimidazo[1,2-a]pyridin-3-yl}-N-{[4-(3-methyl-1,2,4-oxadiazol-5-yl)phenyl]methyl}pyrimidin-4-amine]	10	190
COc1ccn2c(-c3cc(NCc4ccc(-c5cnc(C)o5)cc4)ncn3)cnc2c1 [A48, [6-(7-methoxy-imidazo[1,2-a]pyridin-3-yl)-pyrimidin-4-yl]-[4-(2-methyl-oxazol-5-yl)-benzyl]-amine]	25	470
COc1ccn2c(-c3cc(NCc4ccc(-c5cnn(C6CC6)c5)cc4)ncn3)cnc2c1 [A49, [4-(1-cyclopropyl-1H-pyrazol-4-yl)-benzyl]-[6-(7-methoxy-imidazo[1,2-a]pyridin-3-yl)-pyrimidin-4-yl]-amine]	7.3	89
COc1ccn2c(-c3cc(NCc4ccc(-c5cn(C)nc5OC)cc4)ncn3)cnc2c1 [A50, N-{[4-(3-methoxy-1-methyl-1H-pyrazol-4-yl)phenyl]methyl}-6-{7-methoxyimidazo[1,2-a]pyridin-3-yl}pyrimidin-4-amine]	25	490
COc1ccn2c(-c3cc(NCc4ccc(-c5cc(C)no5)cc4)ncn3)cnc2c1 [A52, [6-(7-methoxy-imidazo[1,2-a]pyridin-3-yl)-pyrimidin-4-yl]-[4-(3-methyl-isoxazol-5-yl)-benzyl]-amine]	5.7	150
COc1ccn2c(-c3cc(NCc4ccc(-c5ncc(C)o5)cc4)ncn3)cnc2c1 [A53, [6-(7-methoxy-imidazo[1,2-a]pyridin-3-yl)-pyrimidin-4-yl]-[4-(5-methyl-oxazol-2-yl)-benzyl]-amine]	6.3	340
Cn1cc(-c2ccc(CNc3cc(-c4cnc5cc(OC6CCOCC6)ccn45)ncn3)cc2)cn1 [A55, [4-(1-methyl-1H-pyrazol-4-yl)-benzyl]-{6-[7-(tetrahydro-pyran-4-yloxy)-imidazo[1,2-a]pyridin-3-yl]-pyrimidin-4-yl}-amine]	22	650
Cn1cc(-c2ccc(CNc3cc(-c4cnc5cc(OC6CCOC6)ccn45)ncn3)cc2)cn1 (stereo not shown) [A57, [4-(1-methyl-1H-pyrazol-4-yl)-benzyl]-{6-[7-(tetrahydro-furan-3-yloxy)-imidazo[1,2-a]pyridin-3-yl]-pyrimidin-4-yl}-amine]	11	270
Cn1cc(-c2ccc(CNc3cc(-c4cnc5cc(OCC6CC6)ccn45)ncn3)cc2)cn1 [A58, 6-[7-(cyclopropylmethoxy)imidazo[1,2-a]pyridin-3-yl]-N-{[4-(1-methyl-1H-pyrazol-4-yl)phenyl]methyl}pyrimidin-4-amine]	19	150
CN(C)CCOc1ccn2c(-c3cc(NCc4ccc(-c5cnn(C)c5)cc4)ncn3)cnc2c1 [A59, 6-{7-[2-(dimethylamino)ethoxy]imidazo[1,2-a]pyridin-3-yl}-N-{[4-(1-methyl-1H-pyrazol-4-yl)phenyl]methyl}pyrimidin-4-amine]	11	82
Cc1ccn2c(-c3cc(NCc4ccc(-c5cnn(C)c5)cc4)ncn3)cnc2c1 [A66, [6-(7-methyl-imidazo[1,2-a]pyridin-3-yl)-pyrimidin-4-yl]-[4-(1-methyl-1H-pyrazol-4-yl)-benzyl]-amine]	7.8	190
c1cn(-c2ccc(CNc3cc(-c4cnc5cc(OCCN6CCOCC6)ccn45)ncn3)cc2)nn1 [A68, {6-[7-(2-morpholin-4-yl-ethoxy)-imidazo[1,2-a]pyridin-3-yl]-pyrimidin-4-yl}-(4-[1,2,3]triazol-1-yl-benzyl)-amine]	5.7	63
COc1cc2ncc(-c3cc(NCc4ccc(-c5cnn(C)c5)cc4)ncn3)n2cc1F [A69, [6-(6-fluoro-7-methoxy-imidazo[1,2-a]pyridin-3-yl)-pyrimidin-4-yl]-[4-(1-methyl-1H-pyrazol-4-yl)-benzyl]-amine]	13	240
c1cn(-c2ccc(CNc3cc(-c4cnc5cc(OCCN6CCCC6)ccn45)ncn3)cc2)nn1 [A70, {6-[7-(2-pyrrolidin-1-yl-ethoxy)-imidazo[1,2-a]pyridin-3-yl]-pyrimidin-4-yl}-(4-[1,2,3]triazol-1-yl-benzyl)-amine]	21	230
Cn1cc(-c2ccc(CNc3cc(-c4cnc5cc(OCc6ccccc6)ccn45)ncn3)cc2)cn1 [A72, 6-[7-(benzyloxy)imidazo[1,2-a]pyridin-3-yl]-N-{[4-(1-methyl-1H-pyrazol-4-yl)phenyl]methyl}pyrimidin-4-amine]	72	540
